These results are taken from US20260272902A1, “C[…] ACID SALT FORM OF A CCR6 ANTAGONIST” (Idorsia Pharmaceuticals Ltd, priority 2022, published 2026).

This data set can be described thus: Gravimetric vapor sorption (GVS) analysis / hygroscopicity. Format: physicochemical. The settings on record: GVS at 25° C., FIG. 4. Here is the method: Gravimetric vapor sorption analysis was performed with SPS 100n (ProUmid GmbH & Co. KG). An appropriate amount of the sample was placed into a tared aluminum pan without any pre-treatment. The analysis was run at a temperature of 25° C. with the following humidity program: 40%-0%-95%-40% in steps of 5% with maximum equilibration time of 24 h at each step. Analyzing software was ProUmid Excel template #SPS_4_3_23_E2010_drycorr.xltm.

In the case of “2-(3-{5-[(R)-(1,3-dimethyl-azetidin-3-yl)-hydroxy-(4-isopropyl-phenyl)-methyl]-pyridin-3-yl}-[1,2,4]oxadiazol-5-yl)-propan-2-ol adipic acid salt”, the “Hygroscopicity classification acc. to Eur. Phar.” value was “is classified as non-hygroscopic acc. to Eur. Phar”. Moreover, the “Hygroscopicity: water uptake” value (between 40% and 80% RH) was “Less than 0.1% water uptake between 40% and 80% RH. Sample”.
